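In this assay, cells in 96-well plates receive the compound at five concentrations for 48 hours. Endpoints are linearly interpolated between the surrounding concentrations. GI50: concentration for 50% inhibition of growth. TGI marks complete inhibition of growth.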
Experiments:
Assay in all cases: NCI anticancer screen, dose series, 48 h
SK-MEL-28 melanoma = test system: SK-MEL-28 melanoma
MOLT-4 leukemia = test system: MOLT-4 leukemia
CCRF-CEM leukemia = test system: CCRF-CEM leukemia
UACC-62 melanoma = test system: UACC-62 melanoma
EKVX NSCLC = test system: EKVX NSCLC
OVCAR-3 ovarian = test system: OVCAR-3 ovarian
OVCAR-8 ovarian = test system: OVCAR-8 ovarian
HT29 colon = test system: HT29 colon
SF-268 CNS = test system: SF-268 CNS
M14 melanoma = test system: M14 melanoma

Structure (SMILES)	TGI (SK-MEL-28 melanoma) [µM]	TGI (MOLT-4 leukemia) [µM]	TGI (CCRF-CEM leukemia) [µM]	TGI (UACC-62 melanoma) [µM]	TGI (EKVX NSCLC) [µM]	TGI (OVCAR-3 ovarian) [µM]	TGI (OVCAR-8 ovarian) [µM]	TGI (HT29 colon) [µM]	TGI (SF-268 CNS) [µM]	TGI (M14 melanoma) [µM]	GI50 (SK-MEL-28 melanoma) [µM]	GI50 (MOLT-4 leukemia) [µM]	GI50 (CCRF-CEM leukemia) [µM]	GI50 (UACC-62 melanoma) [µM]	GI50 (EKVX NSCLC) [µM]	GI50 (OVCAR-3 ovarian) [µM]	GI50 (OVCAR-8 ovarian) [µM]	GI50 (HT29 colon) [µM]	GI50 (SF-268 CNS) [µM]	GI50 (M14 melanoma) [µM]
O=C1c2ccccc2C2(O)NC(=S)N(c3ccccc3)C12O (stereo unspecified)	> 100	> 100	> 100	> 100	> 100	> 100	> 100	> 100	> 100	> 100	–	–	–	–	–	–	–	–	–	–
Cc1cccc(Cl)c1NC(=O)/C=C/c1ccccc1	> 100	> 100	> 100	> 100	> 100	> 100	> 100	> 100	> 100	> 100	–	–	–	–	–	–	–	–	–	–
CCN=c1cc2sc3cc(NCC)c(C)cc3nc-2cc1C	25.6	> 100	17.4	21.8	4.53	0.714	11.8	10.4	14.4	2.74	11.7	0.714	0.76	6.88	0.632	0.149	1.22	2.98	2.47	0.636
c1ccc2c(c1)-c1ccccc1C2N1CC2CCC(CC2)C1	96.1	28.2	35.8	44.5	51	40.5	> 100	37.6	37.8	75.4	–	–	–	–	–	–	–	–	–	–
CCC[CH2][Sn]([CH2]CCC)([O]C(=O)C(N)CSC)[O]C(=O)C(N)CSC (stereo unspecified)	18.2	7.65	6.43	23	27.1	25.4	38.1	44.7	11.3	16.2	5.86	2.42	1.73	10.4	12.1	12.5	12.6	17.2	4.06	10.5
CN1CCCCCC(=N\O)/C(=N/O)CCCCC1	> 100	> 100	> 100	–	> 100	> 100	> 100	> 100	> 100	> 100	–	–	–	–	–	–	–	–	–	–
O=C(Nc1cc[c]([Sb](=[O])([OH])[OH])cc1)c1ccccc1	> 100	> 100	> 100	> 100	> 100	> 100	> 100	> 100	> 100	> 100	> 100	> 100	> 100	> 100	> 100	> 100	> 100	> 100	> 100	> 100
O=C(N/N=C/c1ccccc1Cl)c1ccccc1Nc1ccnc(C(F)(F)F)c1	27.6	–	1.76	3.72	5.94	3.68	8.08	> 100	10.5	7.19	2.39	–	0.32	0.976	1.65	0.832	2.29	3.56	1.8	1.63
CC(=O)/C(=C\C1=CCCO1)C(=O)Nc1ccccc1C	–	> 100	> 100	> 100	> 100	> 100	> 100	> 100	> 100	> 100	–	–	–	–	–	–	–	–	–	–
Cc1cc(N2CCN(c3ccnc4cc(Cl)ccc34)CC2)nc(NC2CCCCC2)n1	–	5.62	10.1	3.34	–	3.9	6.35	3.9	5.41	3.36	–	2.38	2.71	1.66	–	1.9	2.39	1.79	2.34	1.7
NC(=S)N/N=C(\C(=O)Nc1cccc([N+](=O)[O-])c1)c1nc2ccc([N+](=O)[O-])cc2[nH]c1=O	> 100	> 100	> 100	> 100	> 100	–	> 100	> 100	> 100	> 100	–	–	–	–	–	–	–	–	–	–
CCCCCCCCCCC(O)C1CCC(C(O)CCC(O)C2CCC(CCCCCCC[C@H](O)CC3=C[C@@H](C)OC3=O)O2)O1 (stereo partly specified)	> 100	> 100	–	> 100	> 100	45	34	> 100	> 100	> 100	–	–	–	0.466	4.16	–	7.39	–	–	–
COc1ccc2cc3[n+](cc2c1OC)CCc1cc(O)c(O)cc1-3	–	> 100	> 100	> 100	> 100	> 100	> 100	> 100	> 100	> 100	–	–	–	–	–	–	–	–	–	–
COc1ccc(-c2ccc(/C=N/n3c(COc4ccc(Cl)cc4Cl)nn(CN4CCN(C)CC4)c3=S)o2)c([N+](=O)[O-])c1	> 100	–	47	–	–	25	53.5	> 100	> 100	53.9	47.8	–	14.3	–	–	7.51	18.9	41.2	24.8	19.8
COc1cc(C(=O)C/C(CCC(=O)Nc2ccc(Cl)cc2C)=N/NC(=O)C(N)=O)ccc1O	–	> 100	> 100	> 100	> 100	> 100	> 100	> 100	> 100	> 100	–	–	–	–	–	–	–	–	–	–
O=C1NC(=S)NC(=O)C1=Cc1cccc2cc3ccccc3cc12	6.58	5.24	–	3.53	8.9	3.42	3.9	3.74	4.73	4.89	–	–	–	–	–	–	–	–	–	–
CN(C)CC/C(=N\Nc1ccccc1)c1ccccc1	–	> 100	–	> 100	41.2	27.7	–	10	> 100	4.73	–	–	–	–	–	–	–	–	–	–
C=CCN(CC=C)C(=O)c1cc(C)nc2c1c(=O)n(-c1ccccc1)c(=O)n2CC(O)CN1CCN(c2ncccn2)CC1 (stereo unspecified)	> 100	> 100	> 100	> 100	> 100	> 100	–	> 100	> 100	> 100	60.9	> 100	> 100	> 100	> 100	> 100	–	> 100	17.2	> 100

Structure (SMILES)	TGI (SK-MEL-28 melanoma) [µM]	TGI (MOLT-4 leukemia) [µM]	TGI (CCRF-CEM leukemia) [µM]	TGI (UACC-62 melanoma) [µM]	TGI (EKVX NSCLC) [µM]	TGI (OVCAR-3 ovarian) [µM]	TGI (OVCAR-8 ovarian) [µM]	TGI (HT29 colon) [µM]	TGI (SF-268 CNS) [µM]	TGI (M14 melanoma) [µM]	GI50 (SK-MEL-28 melanoma) [µM]	GI50 (MOLT-4 leukemia) [µM]	GI50 (CCRF-CEM leukemia) [µM]	GI50 (UACC-62 melanoma) [µM]	GI50 (EKVX NSCLC) [µM]	GI50 (OVCAR-3 ovarian) [µM]	GI50 (OVCAR-8 ovarian) [µM]	GI50 (HT29 colon) [µM]	GI50 (SF-268 CNS) [µM]	GI50 (M14 melanoma) [µM]
COC(=O)C(=O)C(C(=O)C(=O)Nc1ccccc1C(C)=O)c1nc2ccc(C(=O)c3ccccc3)cc2[nH]c1=O (stereo unspecified)	–	> 100	–	> 100	> 100	> 100	> 100	> 100	> 100	> 100	–	–	–	–	–	–	–	–	–	–
COC(=O)C(=O)C(C#N)c1ccc(CC#N)cc1 (stereo unspecified)	> 100	> 100	> 100	> 100	> 100	> 100	–	> 100	> 100	> 100	–	–	–	–	–	–	–	–	–	–
CCCC(C)C[C@@H](C)CC(C)/C=C(\C)c1oc(=O)c(C)c(O)c1C (stereo partly specified) (tested in a mixture with another compound)	28.2	–	–	–	31.9	18.9	39.7	27.6	33.5	29.1	–	–	–	–	–	–	–	–	–	–
CCCN1CCN(c2ccc3nc(-c4ccc5nc(-c6cc(OC)ccc6OC)[nH]c5c4)[nH]c3c2)CC1	35.9	4.31	4.49	34.7	3.35	3.39	–	3.46	43	3.31	18.9	2.09	2.22	19	1.81	1.84	–	1.8	18.6	1.78
CCN(CC)CCNC(=O)c1nn(C)c(=S)[nH]c1=S	> 100	> 100	> 100	> 100	> 100	> 100	> 100	> 100	–	> 100	–	–	–	–	–	–	–	–	–	–
CCCCc1ccc(-n2c3nc(=O)n(C)c(=O)c-3nc3ccccc32)cc1	–	41.9	41.6	4	15.5	10.1	32.1	11.8	34.1	21.7	–	–	–	–	–	–	–	–	–	–
CC[O-].CC[O-].O=C1C(c2ccccc2)=C([O-])c2ccccc21.O=C1C(c2ccccc2)=C([O-])c2ccccc21.[Ti+4]	> 100	> 100	–	> 100	> 100	> 100	> 100	> 100	> 100	> 100	> 100	> 100	–	72.6	60.1	> 100	> 100	> 100	> 100	> 100
COc1cc(C(c2cc3c(cc2O)OCO3)N2CCCCC2)cc(OC)c1OC (stereo unspecified)	32	–	19.2	30.6	39.5	26.9	28.1	33.3	31.5	18.5	–	–	–	–	–	–	–	–	–	–
C[C@]12CC[C@H](OCCC#N)CC1=CC[C@@H]1C2CC[C@]2(C)/C(=N/OCCC#N)CCC12 (stereo partly specified)	> 100	> 100	> 100	> 100	> 100	> 100	> 100	–	> 100	> 100	–	–	–	–	–	–	–	–	–	–
Cc1nc2cc(N)c(F)cc2[nH]1	> 100	> 100	> 100	> 100	> 100	–	> 100	> 100	> 100	–	–	–	–	–	–	–	–	–	–	–
Cc1ccc(/C=C/C(=O)c2sc(-c3cccnc3)nc2C)cc1	–	> 100	> 100	> 100	> 100	> 100	> 100	> 100	–	–	–	–	–	–	–	–	–	–	–	–
CC1(C)CCC[C@@]2(C)C1CC[C@H]1CC(O)C3(C)CCC12C3 (stereo partly specified)	33.7	44.5	61.2	29.2	–	30.7	32.6	32.1	40.9	31	–	–	–	–	–	–	–	–	–	–
Nc1ncn(C2C=C(CO)C(O)C2O)c(=O)n1 (stereo unspecified)	> 100	> 100	–	> 100	> 100	> 100	> 100	–	> 100	> 100	–	–	–	–	–	–	–	–	–	–
O=C([CH-]C(=O)c1ccccc1)c1ccccc1.O=C([CH-]C(=O)c1ccccc1)c1ccccc1.O=C([CH-]C(=O)c1ccccc1)c1ccccc1.[OH3+].[Y+3]	40.2	20.5	–	22.3	23.1	17.3	21.8	17.1	31	22	10.8	2.96	–	5.73	3.32	5	3.5	4.09	4.8	9.36
c1cc(OCCN2CCCCC2)ccc1CNc1ccc2nc(CCC3CCCCC3)[nH]c2c1	–	6.2	8.34	3.47	6.19	3.5	6.82	3.7	5.43	3.38	–	2.01	1.97	1.95	1.99	1.73	2.42	0.907	2.08	1.72
COc1cc2cc(C(=O)Nc3cc(N)c4ccccc4c3CCCl)[nH]c2c(OC)c1OC	–	–	0.188	0.154	0.517	–	0.841	12.7	6.87	–	0.0923	0.0132	< 0.005	0.0717	0.0993	0.0262	0.0191	0.0438	0.017	–
COc1ccc2c(c1)CCc1[nH]c3ccccc3c1CCCC2	> 10	> 10	> 10	> 10	–	> 10	> 10	> 10	> 10	> 10	–	–	–	–	–	–	–	–	–	–
O=C(C[n+]1ccccc1)N=N/C(C(=O)Nc1c(Cl)c(O)c2ccccc2c1O)=C1/C(=O)Oc2cc(O)ccc2C1=O	–	> 100	> 100	4.14	29.3	13.2	35.3	15.3	> 100	14.7	–	–	–	–	–	–	–	–	–	–
